Test results as given in US7192746B2, “α-Isomaltosyltransferase, process for producing the same and use thereof” (Kabushiki Kaisha Hayashibara Seibutsu Kagaku Kenkyujo, priority 2000, dated 2007).

Columns and labels:
Assay in all cases: Specificity to transferring acceptor
Assay type in all cases: biochemical
Set-up in all cases: key: −: no saccharide transferred product was formed; ±: a saccharide-transferred product formed in an amount of less than one percent to the total sugars; +: a saccharide-transferred product was formed in an amount of over one percent but below 10% to the total sugars; ++: a saccharide-transferred product was formed in an amount of over 10% to the total sugars
[1] = tested on: α-isomaltosyl-transferring enzyme from Bacillus globisporus C9; settings: panose as saccharide donor, 10 units/g substrate, 3.2% (w/v), 30° C., pH 6.0, 24 hours
Protocol: (§1) Saccharides were tested as follows to examine whether they can be used as transferring acceptors for the α-isomaltosyl-transferring enzyme of the present invention. A solution of D-glucose, D-xylose, L-xylose, D-galactose, D-fructose, D-mannose, D-arabinose, D-fucose, L-sorbose, L-rhamnose, methyl-α-glucoside (or methyl-α-glucopyranoside), methyl-β-glucoside (or methyl-β-glucopyranoside), N-acetyl-D-glucosamine, D-ribose, L-ribose, D-psicose, sorbitol, xylitol, mannitol, arabitol, ribitol, erythritol, maltose, maltotriose, maltotetraose, maltopentaose, isomaltose, isomaltotriose, α,α-trehalose, α,β-trehalose, kojibiose, nigerose, cellobiose, gentibiose, isopanose, maltitol, maltotriitol, lactose, sucrose, erlose, isomaltosylglucoside, α-cyclodextrin, β-cyclodextrin, γ-cyclodextrin, or L-ascorbic acid was prepared. To each solution was added panose as a saccharide donor to give an equal concentration, admixed with 10 units/g substrate of a purified specimen of either α-isomaltosyl-transferring enzyme from Bacillus globisporus C9 obtained by the method in Experiment 4, Bacillus globisporus C11 obtained by the method in Experiment 7, Bacillus globisporus N75 obtained by the method in Experiment 11, or Arthrobacter ramosus S1 obtained by the method in Experiment 15, or a partially purified specimen of α-isomaltosyl-transferring enzyme from Arthrobacter globiformis A19 obtained by the method in Experiment 18, followed by adjusting the saccharide concentration to 3.2% (w/v). The mixtures thus obtained were enzymatically reacted at 30° C. and Ph 6.0 for 24 hours. The saccharide composition of the resulting reaction mixtures were analyzed on gas chromatography (abbreviated as “GLC” hereinafter) for monosaccharides and disaccharides as testing saccharides, and on HPLC for tri- or higher-saccharides as testing saccharides to confirm whether these saccharides can be used as transferring acceptors for the above enzymes with an index of the positive or negative formation of a saccharide transferred product. In performing GLC, the following apparatuses and conditions were used: GLC apparatus, “GC-16A” commercialized by Shimadzu Corporation, Tokyo, Japan; column, a stainless-steel column, 3 mm in diameter and 2 m in length, packed with 2% “SILICONE OV-17/[…]”, commercialized by GL Sciences Inc., Tokyo, Japan; carrier gas, nitrogen gas at a flow rate of 40 ml/min under temperature conditions of increasing from 160° C. to 320° C. at an increasing temperature rate of 7.5° C./min; and detection, a hydrogen flame ionization detector. In the case of HPLC analysis, the apparatuses and conditions used were: HPLC apparatus, “CCPD” commercialized by Tosoh Corporation, Tokyo, Japan; column, “ODS-AQ-303” commercialized by YMC Co., Ltd., Tokyo, Japan; eluent, water at a flow rate of 0.5 ml/min; and detection, a differential refractometer.

[2] = tested on: α-isomaltosyl-transferring enzyme from Arthrobacter globiformis A19; settings: partially purified enzyme, panose as saccharide donor, 10 units/g substrate, 3.2% (w/v), 30° C., pH 6.0, 24 hours
Protocol: as §1

[3] = tested on: α-isomaltosyl-transferring enzyme from Arthrobacter ramosus S1; settings: panose as saccharide donor, 10 units/g substrate, 3.2% (w/v), 30° C., pH 6.0, 24 hours
Protocol: as §1

[4] = tested on: α-isomaltosyl-transferring enzyme from Bacillus globisporus N75; settings: panose as saccharide donor, 10 units/g substrate, 3.2% (w/v), 30° C., pH 6.0, 24 hours
Protocol: as §1

[5] = tested on: α-isomaltosyl-transferring enzyme from Bacillus globisporus C11; settings: panose as saccharide donor, 10 units/g substrate, 3.2% (w/v), 30° C., pH 6.0, 24 hours
Protocol: as §1

Product of transferring reaction, Enzyme of Strain C9 [1]	Product of transferring reaction, Enzyme of Strain N75 [4]	Product of transferring reaction, Enzyme of Strain C11 [5]	Compound	Product of transferring reaction, Enzyme of Stain A19 [2]	Product of transferring reaction, Enzyme of Strain S1 [3]
−	−	−	O=C[C@@H](O)[C@@H](O)[C@H](O)[C@H](O)CO [D-Mannose, D-mannose]	−	−
−	−	−	O=C(CO)[C@@H](O)[C@H](O)[C@H](O)CO [D-Fructose, D-fructose]	± (a saccharide-transferred product formed in an amount of less than one percent to the total sugars)	+ (a saccharide-transferred product was formed in an amount of over one percent but below 10% to the total sugars)
−	−	−	OC[C@@H](O)[C@H](O)[C@@H](O)CO [Xylitol, xylitol]	± (a saccharide-transferred product formed in an amount of less than one percent to the total sugars)	± (a saccharide-transferred product formed in an amount of less than one percent to the total sugars)
−	−	−	O=C[C@H](O)[C@@H](O)[C@@H](O)[C@H](O)CO [D-Galactose, D-galactose]	± (a saccharide-transferred product formed in an amount of less than one percent to the total sugars)	+ (a saccharide-transferred product was formed in an amount of over one percent but below 10% to the total sugars)
−	−	−	O=C(CO)[C@H](O)[C@H](O)[C@H](O)CO [D-Psicose, D-psicose]	± (a saccharide-transferred product formed in an amount of less than one percent to the total sugars)	± (a saccharide-transferred product formed in an amount of less than one percent to the total sugars)
−	−	−	OC[C@@H](O)C(O)[C@H](O)CO [Arabitol, arabitol]	−	± (a saccharide-transferred product formed in an amount of less than one percent to the total sugars)
−	−	−	OC[C@@H](O)[C@@H](O)[C@@H](O)CO [Ribitol, ribitol]	−	± (a saccharide-transferred product formed in an amount of less than one percent to the total sugars)

Further lines, the molecule ahead of its results:

Compound	Product of transferring reaction, Enzyme of Strain C9 [1]	Product of transferring reaction, Enzyme of Strain N75 [4]	Product of transferring reaction, Enzyme of Strain C11 [5]	Product of transferring reaction, Enzyme of Stain A19 [2]	Product of transferring reaction, Enzyme of Strain S1 [3]
O=C[C@@H](O)[C@@H](O)[C@@H](O)CO [L-Ribose, L-ribose]	−	−	−	± (a saccharide-transferred product formed in an amount of less than one percent to the total sugars)	++ (a saccharide-transferred product was formed in an amount of over 10% to the total sugars)
O=C1O[C@H]([C@@H](O)CO)C(O)=C1O [L-Ascorbic acid, L-ascorbic acid]	++ (a saccharide-transferred product was formed in an amount of over 10% to the total sugars)	++ (a saccharide-transferred product was formed in an amount of over 10% to the total sugars)	++ (a saccharide-transferred product was formed in an amount of over 10% to the total sugars)	+ (a saccharide-transferred product was formed in an amount of over one percent but below 10% to the total sugars)	++ (a saccharide-transferred product was formed in an amount of over 10% to the total sugars)
CO[C@H]1O[C@H](CO)[C@@H](O)[C@H](O)[C@H]1O [Methyl-α-glucoside, methyl-α-glucoside]	++ (a saccharide-transferred product was formed in an amount of over 10% to the total sugars)	++ (a saccharide-transferred product was formed in an amount of over 10% to the total sugars)	++ (a saccharide-transferred product was formed in an amount of over 10% to the total sugars)	++ (a saccharide-transferred product was formed in an amount of over 10% to the total sugars)	++ (a saccharide-transferred product was formed in an amount of over 10% to the total sugars)
O=C[C@@H](O)[C@H](O)[C@H](O)CO [D-Arabinose, D-arabinose]	± (a saccharide-transferred product formed in an amount of less than one percent to the total sugars)	± (a saccharide-transferred product formed in an amount of less than one percent to the total sugars)	± (a saccharide-transferred product formed in an amount of less than one percent to the total sugars)	± (a saccharide-transferred product formed in an amount of less than one percent to the total sugars)	+ (a saccharide-transferred product was formed in an amount of over one percent but below 10% to the total sugars)
O=C(CO)[C@@H](O)[C@H](O)[C@@H](O)CO [L-Sorbose, L-sorbose]	+ (a saccharide-transferred product was formed in an amount of over one percent but below 10% to the total sugars)	+ (a saccharide-transferred product was formed in an amount of over one percent but below 10% to the total sugars)	+ (a saccharide-transferred product was formed in an amount of over one percent but below 10% to the total sugars)	+ (a saccharide-transferred product was formed in an amount of over one percent but below 10% to the total sugars)	+ (a saccharide-transferred product was formed in an amount of over one percent but below 10% to the total sugars)
